These results are taken from patent US4329473A, “Oxoalkanoic acid derivatives as inhibitors of angiotensin converting enzyme” (priority 1980, dated 1982).

Where a SMILES comes first, the peptide text is derived from it.

For the first assay, the target named is T1, porcine plasma angiotensin-converting enzyme (Sus scrofa, UniProt F1RRW5).
T1 construct: procine plasma angiotensin-converting enzyme; from tissue; host or cells: porcine plasma
T1 sequence (F1RRW5 34-1309): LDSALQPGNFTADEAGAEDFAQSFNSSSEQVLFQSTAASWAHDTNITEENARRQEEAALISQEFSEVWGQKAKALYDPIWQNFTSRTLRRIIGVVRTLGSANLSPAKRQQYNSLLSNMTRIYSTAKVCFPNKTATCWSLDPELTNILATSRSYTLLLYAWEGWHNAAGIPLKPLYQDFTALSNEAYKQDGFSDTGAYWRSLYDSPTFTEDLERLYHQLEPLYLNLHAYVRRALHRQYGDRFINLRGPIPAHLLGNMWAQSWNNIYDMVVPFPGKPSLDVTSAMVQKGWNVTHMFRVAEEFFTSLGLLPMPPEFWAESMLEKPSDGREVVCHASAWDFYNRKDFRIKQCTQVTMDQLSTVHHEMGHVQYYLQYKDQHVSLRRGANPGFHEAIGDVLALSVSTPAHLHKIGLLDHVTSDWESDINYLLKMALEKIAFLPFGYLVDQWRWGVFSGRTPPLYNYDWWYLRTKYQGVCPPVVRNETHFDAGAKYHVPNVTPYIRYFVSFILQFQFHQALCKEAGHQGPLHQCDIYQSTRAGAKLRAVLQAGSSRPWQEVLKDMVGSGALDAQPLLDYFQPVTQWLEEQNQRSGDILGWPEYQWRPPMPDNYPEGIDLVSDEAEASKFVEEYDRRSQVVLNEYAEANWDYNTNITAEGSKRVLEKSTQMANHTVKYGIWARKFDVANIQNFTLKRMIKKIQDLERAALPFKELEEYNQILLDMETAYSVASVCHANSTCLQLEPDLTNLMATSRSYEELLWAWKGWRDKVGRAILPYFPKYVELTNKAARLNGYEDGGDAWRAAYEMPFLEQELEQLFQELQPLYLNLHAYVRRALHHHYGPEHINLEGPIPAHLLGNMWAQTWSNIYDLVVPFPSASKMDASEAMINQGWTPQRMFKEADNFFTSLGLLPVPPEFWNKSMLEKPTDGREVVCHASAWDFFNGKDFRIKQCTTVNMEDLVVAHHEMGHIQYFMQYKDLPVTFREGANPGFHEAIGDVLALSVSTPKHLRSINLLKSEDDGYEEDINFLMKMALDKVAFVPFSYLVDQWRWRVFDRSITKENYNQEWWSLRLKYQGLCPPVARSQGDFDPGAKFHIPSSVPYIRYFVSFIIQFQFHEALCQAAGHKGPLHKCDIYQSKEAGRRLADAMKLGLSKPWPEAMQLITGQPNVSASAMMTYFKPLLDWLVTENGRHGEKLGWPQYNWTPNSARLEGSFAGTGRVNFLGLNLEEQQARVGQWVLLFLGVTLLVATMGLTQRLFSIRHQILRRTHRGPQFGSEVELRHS
Description: Angiotensin Converting Enzyme Inhibition Assay. In kind it is biochemical. The conditions noted are these: compared with Captopril / other examples, Table II. How it is done:
Said assay is described in the literature as follows: B. S. Tsai, M. J. Peach, M. C.
The Angiotensin Converting Enzyme Inhibition Assay represents a test procedure in which various compounds are tested for their ability to inhibit the conversion of the decapeptide angiotensin I or the tripeptide hippuryl-histidyl-leucine to its cleavage product, the dipeptide histidyl-leucine. This dipeptide is detected via its fluorescent condensation product with o-phthaladehyde.
For testing the effect of inhibitors on procine plasma angiotensin-converting enzyme, two assays were run in parallel. One contained the substrate (1-2 mM), enzyme (1 mg) and various concentrations (1 nM-10 mM) of an inhibitor, the other contained only the substrate and enzyme. The assays were conducted in sodium phosphate buffer, pH 7.6, under the conditions described in the article by Tsai, et al., supra.
For `CC(CC(=O)C(Cc1ccccc1)NC(=O)c1ccccc1)C(=O)N1CCC[C@H]1C(=O)O` (stereo partly drawn) [Example XIII, 5-Benzamido-4-oxo-2-methyl-6-phenylhexanoyl-L-proline], the “effectiveness in angiotensin converting enzyme inhibition assay (in words)” value was “most effective compound”.

Still in this assay, the particulars now being: sodium phosphate buffer, pH 7.6; substrate 1-2 mM; inhibitor 1 nM-10 mM.
What is called IC50 is the concentration needed to halve the response being measured. `O=C(NC(Cc1ccccc1)C(=O)CCC(=O)N1CCC[C@H]1C(=O)O)OCc1ccccc1` (stereo partly drawn) [Example III, 5-Benzyloxycarbonylamino-4-oxo-6-phenylhexanoyl-L-proline] displayed an IC50 of 240 nM.
For the compound `O=C(NC(Cc1ccc(OCc2ccccc2)cc1)C(=O)CCC(=O)N1CCC[C@H]1C(=O)O)c1ccccc1` (stereo partly drawn) [Example IX, 5-Benzamido-4-oxo-6-p-benzyloxyphenylhexanoyl-L-proline], 10 nM corresponded to half-maximal inhibition (IC50).
Same read-out and setting: in the case of `O=C(NC(Cc1ccccc1)C(=O)CCC(=O)N1CCC[C@H]1C(=O)O)c1ccco1` (stereo partly drawn) [Example V, 5-(2-Furoylamino)-4-oxo-6-phenylhexanoyl-L-proline] it was 1.4 nM; in that of `O=C(NC(Cc1ccc(O)cc1)C(=O)CCC(=O)N1CCC[C@H]1C(=O)O)c1ccccc1` (stereo partly drawn) [Example X, 5-Benzamido-4-oxo-6-p-hydroxyphenylhexanoyl-L-proline], 4.7 nM; in that of `O=C(NC(Cc1cccnc1)C(=O)CCC(=O)N1CCC[C@H]1C(=O)O)c1ccccc1` (stereo partly drawn) [Example XI, 5-Benzamido-4-oxo-6-(3-pyridyl)hexanoyl-L-proline], 5.7 nM.
For the compound `CCCCCC(=O)NC(Cc1ccccc1)C(=O)CCC(=O)N1CCC[C@H]1C(=O)O` (stereo partly drawn) [Example XIX, 5-n-Hexanoylamino-4-oxo-6-phenylhexanoyl-L-proline], the 50% inhibitory concentration (IC50) came out at 47 nM.
Consider `CCCCOC(=O)NC(Cc1ccccc1)C(=O)CCC(=O)N1CCC[C@H]1C(=O)O` (stereo partly drawn) [Example XV, 5-n-Butyloxycarbonylamino-4-oxo-6-phenylhexanoyl-L-proline], for which the IC50 stood at 210 nM.
Same read-out and setting: in the case of `CCCCOC(=O)NC(Cc1ccccc1)C(=O)CC(C)C(=O)N1CCC[C@H]1C(=O)O` (stereo partly drawn) [Example XVII, 5-n-Butyloxycarbonylamino-4-oxo-2-methyl-6-phenylhexanoyl-L-proline] it was 33 nM; in that of `O=C(NC(Cc1ccccc1)C(=O)CCC(=O)N1CCC[C@H]1C(=O)O)c1ccncc1` (stereo partly drawn) [IV, 5-(4-Pyridyl)carbonylamino-4-oxo-6-phenylhexanoyl-L-proline], 20 nM; in that of `O=C(CCC(=O)N1CCC[C@H]1C(=O)O)C(Cc1ccccc1)NC(=O)C1CCCO1` (stereo partly drawn) [VI, 5-(2-Tetrahydrofuroylamino)-4-oxo-6-phenylhexanoyl-L-proline], 20 nM.
Compound `Cc1ccccc1C(=O)NC(Cc1ccccc1)C(=O)CCC(=O)N1CCC[C@H]1C(=O)O` (stereo partly drawn) [VII, 5-O-Toluoylamino-4-oxo-6-phenylhexanoyl-L-proline] returned an IC50 of 46 nM.
On the same count and under the same terms, in the case of `COc1ccc(CC(NC(=O)c2ccccc2)C(=O)CCC(=O)N2CCC[C@H]2C(=O)O)cc1OC` (stereo partly drawn) [VIII, 5-Benzamido-4-oxo-6-(3,4-dimethoxyphenyl)hexanoyl-L-proline] it was 1.4 nM; in that of `CC(C)C(CC(=O)C(Cc1ccccc1)NC(=O)c1ccccc1)C(=O)N1CCC[C@H]1C(=O)O` (stereo partly drawn) [XIV, 5-Benzamido-4-oxo-2-isopropyl-6-phenylhexanoyl-L-proline], 230 nM; in that of `CC(=O)NC(Cc1ccccc1)C(=O)CCC(=O)N1CCC[C@H]1C(=O)O` (stereo partly drawn) [XVIII, 5-Acetylamino-4-oxo-6-phenylhexanoyl-L-proline], 330 nM.
Same read-out and setting: in the case of `CCCCCCCC(=O)NC(Cc1ccccc1)C(=O)CCC(=O)N1CCC[C@H]1C(=O)O` (stereo partly drawn) [XX, 5-n-Octanoylamino-4-oxo-6-phenylhexanoyl-L-proline] it was 650 nM; in that of `CCCCCCCCCC(=O)NC(Cc1ccccc1)C(=O)CCC(=O)N1CCC[C@H]1C(=O)O` (stereo partly drawn) [XXI, 5-n-Decanoylamino-4-oxo-6-phenylhexanoyl-L-proline], 6500 nM.

The test system of the next assay is angiotensin converting enzyme.
Experiment: not given
Conditions: literature; cited from earlier work.
Turning to `C[C@H](NC(=O)[C@@H](N)Cc1ccccc1)C(=O)N1CCC[C@H]1C(=O)O` [phenylalanyl-alanyl-proline] (H-Phe-Ala-Pro-OH), the “inhibition of the converting enzyme (in words)” value was “substantial degree of activity”.
